From ChEMBL document CHEMBL1201862, “PubChem BioAssay data set” (2004)
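Growth conditions: 96-well plates. Treatment: test compound, 48 hours, 5 concentrations. Analysis: linear interpolation between bracketing concentrations; unreached endpoints set to highest concentration. Here, GI50 denotes the concentration required for 50% inhibition of growth.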 Active and inactive are the calls of the source. Rule as the data show it: active = GI50 up to about 1.1 µM and inactive = higher.

Tests used:
Assay in all cases: NCI tumour cell line growth inhibition, 48 h
A549 = system: A549
HCC 2998 = system: HCC 2998
UACC-257 = system: UACC-257
CCRF-CEM = system: CCRF-CEM
OVCAR-5 = system: OVCAR-5
A498 = system: A498
XF498 = system: XF498
NCI-H23 = system: NCI-H23
COLO 205 = system: COLO 205
KM12 = system: KM12
PC-3 = system: PC-3
SNB-19 = system: SNB-19
MCF7 = system: MCF7
MDA-MB-231 = system: MDA-MB-231
HCT-116 = system: HCT-116
DU-145 = system: DU-145
BT-549 = system: BT-549
SR = system: SR
T47D = system: T47D
DMS-273 = system: DMS-273

| SMILES | GI50 (A549) | GI50 (HCC 2998) | GI50 (UACC-257) | GI50 (CCRF-CEM) | GI50 (OVCAR-5) | GI50 (A498) | GI50 (XF498) | GI50 (NCI-H23) | GI50 (COLO 205) | GI50 (KM12) | GI50 (PC-3) | GI50 (SNB-19) | GI50 (MCF7) | GI50 (MDA-MB-231) | GI50 (HCT-116) | GI50 (DU-145) | GI50 (BT-549) | GI50 (SR) | GI50 (T47D) | GI50 (DMS-273) |
| --- | --- | --- | --- | --- | --- | --- | --- | --- | --- | --- | --- | --- | --- | --- | --- | --- | --- | --- | --- | --- |
| O=C1CCC2(c3ccc(F)cc3)Nc3ncccc3N12 (stereo unspecified) | > 100 µM (inactive) | > 100 µM (inactive) | > 100 µM (inactive) | > 100 µM (inactive) | > 100 µM (inactive) | > 100 µM (inactive) | > 100 µM (inactive) | > 100 µM (inactive) | > 100 µM (inactive) | > 100 µM (inactive) | – | – | – | – | – | – | – | – | – | – |
| Cc1ccc(C(=O)Nc2ccc(CP(=O)(O)O)cc2)cc1NC(=O)c1cccc(N)c1 | > 100 µM (inactive) | > 100 µM (inactive) | > 100 µM (inactive) | > 100 µM (inactive) | > 100 µM (inactive) | > 100 µM (inactive) | – | > 100 µM (inactive) | > 100 µM (inactive) | > 100 µM (inactive) | > 100 µM (inactive) | > 100 µM (inactive) | > 100 µM (inactive) | > 100 µM (inactive) | > 100 µM (inactive) | > 100 µM (inactive) | > 100 µM (inactive) | > 100 µM (inactive) | > 100 µM (inactive) | – |
| CCOC(=O)c1c(C)n(-c2ccc(C)cc2)c2c1cc(O)c1[nH]c3c(c12)CCCC3 | 18.8 µM (inactive) | 14.6 µM (inactive) | 21.2 µM (inactive) | 1.38 µM (inactive) | 23.5 µM (inactive) | 13.9 µM (inactive) | – | 20.3 µM (inactive) | 25.6 µM (inactive) | 16.7 µM (inactive) | 12.9 µM (inactive) | 19.4 µM (inactive) | 16.5 µM (inactive) | 20 µM (inactive) | 21.8 µM (inactive) | 12.8 µM (inactive) | 10.1 µM (inactive) | 0.0566 µM (active) | 20.9 µM (inactive) | – |
| CCN(CC)c1ncnc2c1ncn2CCNC(CO)(CO)CO | > 100 µM (inactive) | > 100 µM (inactive) | > 100 µM (inactive) | > 100 µM (inactive) | > 100 µM (inactive) | > 100 µM (inactive) | – | > 100 µM (inactive) | > 100 µM (inactive) | > 100 µM (inactive) | > 100 µM (inactive) | > 100 µM (inactive) | > 100 µM (inactive) | > 100 µM (inactive) | > 100 µM (inactive) | > 100 µM (inactive) | > 100 µM (inactive) | > 100 µM (inactive) | > 100 µM (inactive) | – |
| Cc1cc(Oc2cnc(=O)[nH]c2)cs1 | > 100 µM (inactive) | > 100 µM (inactive) | > 100 µM (inactive) | > 100 µM (inactive) | > 100 µM (inactive) | > 100 µM (inactive) | – | > 100 µM (inactive) | > 100 µM (inactive) | > 100 µM (inactive) | > 100 µM (inactive) | > 100 µM (inactive) | > 100 µM (inactive) | > 100 µM (inactive) | > 100 µM (inactive) | > 100 µM (inactive) | > 100 µM (inactive) | > 100 µM (inactive) | > 100 µM (inactive) | – |
| COc1ccc2c(C)c(Oc3c(Cl)c(Cl)c(O)c(C#N)c3C#N)oc2c1 | > 100 µM (inactive) | > 100 µM (inactive) | > 100 µM (inactive) | > 100 µM (inactive) | > 100 µM (inactive) | > 100 µM (inactive) | – | > 100 µM (inactive) | > 100 µM (inactive) | > 100 µM (inactive) | > 100 µM (inactive) | > 100 µM (inactive) | > 100 µM (inactive) | > 100 µM (inactive) | > 100 µM (inactive) | > 100 µM (inactive) | > 100 µM (inactive) | > 100 µM (inactive) | > 100 µM (inactive) | – |
| CCOC(=O)c1c(CN2CCOCC2)n(Cc2ccccc2)c2c1cc(O)c1nc(C)c(C)nc12 | 49 µM (inactive) | > 100 µM (inactive) | > 100 µM (inactive) | > 100 µM (inactive) | > 100 µM (inactive) | 22 µM (inactive) | – | 35.5 µM (inactive) | 40 µM (inactive) | > 100 µM (inactive) | 17.5 µM (inactive) | 38.2 µM (inactive) | 16.7 µM (inactive) | 85.1 µM (inactive) | 38.3 µM (inactive) | 78.2 µM (inactive) | 11.5 µM (inactive) | 44 µM (inactive) | 20 µM (inactive) | – |
| C[C@@]1(CO)[C@H](O)CC[C@@]2(C)[C@H]1CC[C@H]1C[C@@H]3C[C@@]12CC[C@@]3(O)COC(=O)CN | – | 4.23 µM (inactive) | 33.9 µM (inactive) | 0.67 µM (active) | – | – | – | 2.08 µM (inactive) | 19.1 µM (inactive) | 28 µM (inactive) | 21.3 µM (inactive) | – | – | 34.8 µM (inactive) | – | 2.67 µM (inactive) | 42.3 µM (inactive) | 0.811 µM (active) | 11.4 µM (inactive) | 0.486 µM (active) |
